Data from patent US8927559B2, “Quinazolinone-type compounds as CRTH2 antagonists” (Merck Sharp & Dohme Corp., priority 2010, dated 2015).
Where “and” joins values, the source holds several entries; their conditions need not be identical. Equal values may be shown once. Read-outs that look alike come from different tables or passages of the source.

Biological target: T1, CRTH2 receptor (hCRTH2) (Homo sapiens, UniProt Q9Y5Y4)
T1 construct: expressed in transfected cells; host or cells: HEK cells (HEK-hCRTH2 cell line), membranes
T1 sequence (Q9Y5Y4 1-395): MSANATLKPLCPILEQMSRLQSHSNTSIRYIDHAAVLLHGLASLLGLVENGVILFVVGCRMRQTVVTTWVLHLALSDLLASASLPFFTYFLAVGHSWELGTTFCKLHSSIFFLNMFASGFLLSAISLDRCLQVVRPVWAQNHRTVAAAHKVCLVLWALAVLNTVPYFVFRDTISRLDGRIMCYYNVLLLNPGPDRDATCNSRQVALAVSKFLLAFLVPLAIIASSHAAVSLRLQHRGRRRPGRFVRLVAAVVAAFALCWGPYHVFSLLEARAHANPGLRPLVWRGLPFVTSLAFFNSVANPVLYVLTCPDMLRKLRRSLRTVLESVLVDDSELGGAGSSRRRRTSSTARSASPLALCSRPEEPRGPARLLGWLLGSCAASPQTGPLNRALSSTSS
Assay: Radioligand binding assay ([3H]PGD2 competition, membranes of HEK-hCRTH2 cell line)
Details: 3.0 nM [3H]PGD2, HEK-hCRTH2 membranes, 60 min, room temperature
Protocol: Competing ligands were diluted in dimethylsulfoxide (Me2SO) that was kept constant at 1% (v/v) of the final incubation volume. The reaction was initiated by the addition of 8-20 μg of membrane protein prepared from a HEK-hCRTH2 cell line. Total and non-specific binding were determined in the absence and the presence of […] PGD2, respectively. […] The reaction was routinely conducted for 60 min at room temperature and terminated by rapid filtration through prewetted (0.3% polyethyleneimine) 96-well printed filtermate (Wallac) using a Tomtec harvester. After washing with cold buffer, the filter was dried for 2 minutes in microwave, and Meltilex Scintillator sheet (Wallac) was melted on for 2 min.

| Ki (read-out: Ki) | Compound | Ki (Ki) |
| --- | --- | --- |
| 0.01 to 0.05 µM | O=C(O)CCCCc1nc2cc(C3=NOC(c4nc5ccccc5o4)C3)ccc2c(=O)n1-c1ccc(F)cc1 (single isomer, unassigned) [Example 28D, 5-(7-(5-(benzo[d]oxazol-2-yl)-4,5-dihydroisoxazol-3-yl)-3-(4-fluorophenyl)-4-oxo-3,4-dihydroquinazolin-2-yl)pentanoic acid] | – |
| ≤ 0.01 µM | O=C(O)CCCCc1nc2cc(C3=NOC(c4nc5ccccc5o4)C3)ccc2c(=O)n1-c1ccc(F)cc1 (single isomer, unassigned) [Example 28E, 5-(7-(5-(benzo[d]oxazol-2-yl)-4,5-dihydroisoxazol-3-yl)-3-(4-fluorophenyl)-4-oxo-3,4-dihydroquinazolin-2-yl)pentanoic acid] | – |
| ≤ 0.01 µM | CC(c1ccccc1)C1(C)CC(c2ccc3c(=O)n(-c4ccc(F)cc4)c(CCCCC(=O)O)nc3c2)=NO1 (single isomer, unassigned) [Example 42, 5-(3-(4-fluorophenyl)-7-(5-methyl-5-(1-phenylethyl)-4,5-dihydroisoxazol-3-yl)-4-oxo-3,4-dihydroquinazolin-2-yl)pentanoic acid] | – |
| ≤ 0.01 µM | CC(c1ccccc1)C1(C)CC(c2ccc3c(=O)n(-c4ccc(F)cc4)c(CCCCC(=O)O)nc3c2)=NO1 (single isomer, unassigned) [Example 42E, 5-(3-(4-fluorophenyl)-7-(5-methyl-5-(1-phenylethyl)-4,5-dihydroisoxazol-3-yl)-4-oxo-3,4-dihydroquinazolin-2-yl)pentanoic acid] | – |
| ≤ 0.01 µM | CC(c1ccccc1)C1(C)CC(c2ccc3c(=O)n(-c4ccc(F)cc4)c(CCCCC(=O)O)nc3c2)=NO1 (single isomer, unassigned) [Example 42F, 5-(3-(4-fluorophenyl)-7-(5-methyl-5-(1-phenylethyl)-4,5-dihydroisoxazol-3-yl)-4-oxo-3,4-dihydroquinazolin-2-yl)pentanoic acid] | – |
| 0.01 to 0.05 µM | CC(c1ccccc1)C1(C)CC(c2ccc3c(=O)n(-c4ccc(F)cc4)c(CCCCC(=O)O)nc3c2)=NO1 (single isomer, unassigned) [Example 42G, 5-(3-(4-fluorophenyl)-7-(5-methyl-5-(1-phenylethyl)-4,5-dihydroisoxazol-3-yl)-4-oxo-3,4-dihydroquinazolin-2-yl)pentanoic acid] | – |
| ≤ 0.01 µM | O=C(O)CCCCc1nc2cc(C3=NOC4(CC[C@H](c5ccccc5)C4)C3)ccc2c(=O)n1-c1ccc(F)cc1 (single isomer, unassigned) [Example 139] | – |
| ≤ 0.01 µM | O=C(O)CCCCc1nc2cc(C3=NOC4(CC[C@@H](c5ccccc5)C4)C3)ccc2c(=O)n1-c1ccc(F)cc1 (single isomer, unassigned) [Example 141] | – |
| 0.01 to 0.05 µM | O=C(O)CCCCc1nc2cc(C3=NOC(c4ccccc4)C3)ccc2c(=O)n1-c1ccc(F)cc1 (centres unmarked) [Example 15, 5-(3-(4-fluorophenyl)-4-oxo-7-(5-phenyl-4,5-dihydroisoxazol-3-yl)-3,4-dihydroquinazolin-2-yl)pentanoic acid] | – |
| 0.01 to 0.05 µM | O=C(O)CCCCc1nc2cc(C3=NOC(c4ccccn4)C3)ccc2c(=O)n1-c1ccc(F)cc1 (centres unmarked) [Example 15G] | – |
| ≤ 0.01 µM | O=C(O)CCCCc1nc2cc(C3=NOC(c4ccccc4)C3)ccc2c(=O)n1-c1ccc(Cl)cc1 (centres unmarked) [Example 15K] | – |
| 0.01 to 0.05 µM | COCC1(c2ccccc2)CC(c2ccc3c(=O)n(-c4ccc(F)cc4)c(CCCCC(=O)O)nc3c2)=NO1 (centres unmarked) [Example 15V] | – |
| 0.01 to 0.05 µM | COCC1(c2ccccc2)CC(c2ccc3c(=O)n(-c4ccc(Cl)cc4)c(CCCCC(=O)O)nc3c2)=NO1 (centres unmarked) [Example 15W] | – |
| ≤ 0.01 µM | CC1(c2ccccc2)CC(c2ccc3c(=O)n(-c4ccc(Cl)cc4)c(CCCCC(=O)O)nc3c2)=NO1 (centres unmarked) [Example 15i] | – |
| ≤ 0.01 µM | O=C(O)CCCCc1nc2cc(-c3cn(Cc4ccccc4)nn3)ccc2c(=O)n1-c1ccc(F)cc1 [Example 17, 5-[7-(1-benzyl-1H-1,2,3-triazol-4-yl)-3-(4-fluorophenyl)-4-oxo-3,4-dihydroquinazolin-2-yl]pentanoic acid] | – |

Further lines, the compound ahead of its results:

| Compound | Ki (read-out: Ki) | Ki (Ki) |
| --- | --- | --- |
| CC1(c2nc3ccccc3o2)CC(c2ccc3c(=O)n(-c4ccc(F)cc4)c(CCCCC(=O)O)nc3c2)=NO1 (single isomer, unassigned) [Example 35, 5-(7-(5-(benzo[d]oxazol-2-yl)-5-methyl-4,5-dihydroisoxazol-3-yl)-3-(4-fluorophenyl)-4-oxo-3,4-dihydroquinazolin-2-yl)pentanoic acid] | – | ≤ 0.01 µM |
| CC1(c2nc3ccccc3o2)CC(c2ccc3c(=O)n(-c4ccc(F)cc4)c(CCCCC(=O)O)nc3c2)=NO1 (single isomer, unassigned) [Example 35G, 5-(7-(5-(benzo[d]oxazol-2-yl)-5-methyl-4,5-dihydroisoxazol-3-yl)-3-(4-fluorophenyl)-4-oxo-3,4-dihydroquinazolin-2-yl)pentanoic acid] | – | 0.01 to 0.05 µM |
| O=C(O)CSc1nc2cc(-c3cscn3)ccc2c(=O)n1-c1ccc(F)cc1 [Example 1K] | 0.01 to 0.05 µM | – |
| O=C(O)CCCCc1nc2cc(-c3cc(C4CC4)on3)ccc2c(=O)n1-c1ccc(F)cc1 [Example 5J] | 0.01 to 0.05 µM | – |
| O=C(O)CCCCc1nc2cc(-c3ccon3)ccc2c(=O)n1-c1ccc(F)cc1 [Example 5K] | 0.01 to 0.05 µM | – |
| O=C(O)CCCCc1nc2cc(-c3cc(C(F)(F)F)on3)ccc2c(=O)n1-c1ccc(F)cc1 [Example 5M] | ≤ 0.01 µM | – |
| O=C(O)CCCCc1nc2cc(-c3cc(-c4ccc(F)cc4)on3)ccc2c(=O)n1-c1ccc(F)cc1 [Example 5N] | ≤ 0.01 µM | – |
| O=C(O)CCCCc1nc2cc(-c3cc(C(=O)C4CC4)on3)ccc2c(=O)n1-c1ccc(F)cc1 [Example 5Q] | 0.01 to 0.05 µM | – |
| Cc1cc(-c2ccc3c(=O)n(-c4ccc(F)cc4)c(CCCCC(=O)O)nc3c2)no1 [Example 5i] | 0.01 to 0.05 µM | – |
| O=C(O)CCCCc1nc2cc(-c3cc(C4CC4)no3)ccc2c(=O)n1-c1ccc(F)cc1 [Example 8C, 5-(7-(3-Cyclopropylisoxazol-5-yl)-3-(4-fluorophenyl)-4-oxo-3,4-dihydroquinazolin-2-yl)pentanoic acid] | 0.01 to 0.05 µM | – |
| Cc1cc(-c2ccc3c(=O)n(-c4ccc(F)cc4)c(CCCCC(=O)O)nc3c2)on1 [Example 8D] | ≤ 0.01 µM | – |
| Cn1cc(-c2ccc3c(=O)n(-c4ccc(F)cc4)c(CCCCC(=O)O)nc3c2)nn1 [Example 9, 5-(3-(4-Fluorophenyl)-7-(1-methyl-1H-1,2,3-triazol-4-yl)-4-oxo-3,4-dihydroquinazolin-2-yl)pentanoic acid] | ≤ 0.01 µM | – |
| Cc1cc(-c2ccc3c(=O)n(-c4ccc(C(F)(F)F)cc4)c(CCCCC(=O)O)nc3c2)no1 [Example 13, 5-{7-(5-Methylisoxazol-3-yl)-4-oxo-3-[4-(trifluoromethyl)phenyl]-3,4-dihydroquinazolin-2-yl}pentanoic acid] | ≤ 0.01 µM | – |
| O=C(O)CCCCc1nc2cc(-c3noc(-c4ccncc4)n3)ccc2c(=O)n1-c1ccc(F)cc1 [Example 14, 5-{3-(4-fluorophenyl)-4-oxo-7-[5-(pyridin-4-0)-1,2,4-oxadiazol-3-yl]-3,4-dihydroquinazolin-2-yl}pentanoic acid] | 0.01 to 0.05 µM and 0.0172 µM | – |
| CC(C)(C)c1ccc(-c2nc(-c3ccc4c(=O)n(-c5ccc(F)cc5)c(CCCCC(=O)O)nc4c3)no2)cc1 [Example 14C] | 0.01 to 0.05 µM | – |
| CC1(c2ccccc2)CC(c2ccc3c(=O)n(-c4ccc(F)cc4)c(CCCCC(=O)O)nc3c2)=NO1 (centres unmarked) [Example 15E] | – | 0.01 to 0.05 µM |
| CC1(c2ccccc2)CC(c2ccc3c(=O)n(-c4ccc(F)cc4)c(CCCCC(=O)O)nc3c2)=NO1 (centres unmarked) [Example 15F] | – | ≤ 0.01 µM |
| O=C(O)CCCCc1nc2cc(C3=NOC(c4ccncc4)C3)ccc2c(=O)n1-c1ccc(F)cc1 (centres unmarked) [Example 15H] | 0.01 to 0.05 µM | – |
| O=C(O)CCCCc1nc2cc(C3=NOC(c4ccccn4)C3)ccc2c(=O)n1-c1ccc(Cl)cc1 (centres unmarked) [Example 15L] | ≤ 0.01 µM | – |
| O=C(O)CCCCc1nc2cc(C3=NOC(c4ccncc4)C3)ccc2c(=O)n1-c1ccc(Cl)cc1 (centres unmarked) [Example 15M] | ≤ 0.01 µM | – |
| COc1cccc(C2CC(c3ccc4c(=O)n(-c5ccc(F)cc5)c(CCCCC(=O)O)nc4c3)=NO2)c1 (centres unmarked) [Example 15N] | ≤ 0.01 µM | – |
| O=C(O)CCCCc1nc2cc(C3=NOC(c4cccc(Cl)c4)C3)ccc2c(=O)n1-c1ccc(F)cc1 (centres unmarked) [Example 15P] | ≤ 0.01 µM | – |
| N#Cc1ccc(C2CC(c3ccc4c(=O)n(-c5ccc(F)cc5)c(CCCCC(=O)O)nc4c3)=NO2)cc1 (centres unmarked) [Example 15Q] | ≤ 0.01 µM | – |
| CC(C)(C)OC(=O)N1CCC2(CC1)CC(c1ccc3c(=O)n(-c4ccc(Cl)cc4)c(CCCCC(=O)O)nc3c1)=NO2 [Example 15T] | ≤ 0.01 µM | – |
| CC(=O)N1CCC2(CC1)CC(c1ccc3c(=O)n(-c4ccc(Cl)cc4)c(CCCCC(=O)O)nc3c1)=NO2 [Example 15U] | 0.01 to 0.05 µM | – |
| O=C(O)CCCCc1nc2cc(C3=NOC4(CCCCC4)C3)ccc2c(=O)n1-c1ccc(F)cc1 [Example 15X] | ≤ 0.01 µM | – |
| O=C(O)CCCCc1nc2cc(C3=NOC4(CCCCC4)C3)ccc2c(=O)n1-c1ccc(Cl)cc1 [Example 15Y] | ≤ 0.01 µM | – |
| N#CC1CC2(CC(c3ccc4c(=O)n(-c5ccc(Cl)cc5)c(CCCCC(=O)O)nc4c3)=NO2)C1 (centres unmarked) [Example 15Z] | ≤ 0.01 µM | – |
| COc1cccc(C2CC(c3ccc4c(=O)n(-c5ccc(Cl)cc5)c(CCCCC(=O)O)nc4c3)=NO2)c1 (centres unmarked) [Example 15o] | ≤ 0.01 µM | – |
